20 compounds from patent US9550782B2, “Compounds and methods for treating diabetes” (Medivation Technologies, Inc., priority 2011, dated 2017) can be followed below.

“And” between values parts separate entries of the source, which are not always exact repeats. Identical values can stand only once.

As usually defined, the Ki is a dissociation constant, usually derived from enzyme kinetics or from competition with a known ligand. As a reminder, the inhibition is the relative decrease from the control value, in per cent.

For assay [1], the target named is T1, human recombinant adrenergic α2A receptor (Homo sapiens, UniProt P08913).
T1 construct: expressed in transfected cells; host or cells: insect Sf9 cells
T1 sequence (P08913 1-465): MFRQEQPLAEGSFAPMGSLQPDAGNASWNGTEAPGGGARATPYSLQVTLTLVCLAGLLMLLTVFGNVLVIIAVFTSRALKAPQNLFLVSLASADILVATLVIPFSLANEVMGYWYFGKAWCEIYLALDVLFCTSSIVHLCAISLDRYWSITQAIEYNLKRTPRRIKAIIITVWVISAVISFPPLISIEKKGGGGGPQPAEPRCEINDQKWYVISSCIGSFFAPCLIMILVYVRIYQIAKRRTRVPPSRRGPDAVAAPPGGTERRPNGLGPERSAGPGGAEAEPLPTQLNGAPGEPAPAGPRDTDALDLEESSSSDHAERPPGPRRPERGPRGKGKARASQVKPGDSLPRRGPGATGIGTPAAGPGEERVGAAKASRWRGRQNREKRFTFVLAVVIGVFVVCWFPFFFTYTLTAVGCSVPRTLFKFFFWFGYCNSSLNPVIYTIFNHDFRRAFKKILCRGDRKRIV
Description: Radioligand binding, adrenergic α2A ([3H]MK-912). The following applies: for inhibition at 0.1 µM: read-out: Percentage inhibition of ligand binding, Adrenergic α2A (0.1 μM), compound at 0.1 μM. As to the method:
To evaluate in radioligand binding assays the activity of compounds of the invention, human recombinant adrenergic α2A receptor expressed in insect Sf9 cells (Uhlen, S. et al, J. Pharmacol. Exp. Ther. 271:1558, 1994) in a modified Tris-HCl buffer (50 mM Tris-HCl, pH 7.4, 12.5 mM MgCl2, 2 mM EDTA) was used. Compounds of invention were incubated with 1 nM [^3H]MK-912 for 60 min at 25° C. MK912 is (2S-trans)-1,3,4,5′,6,6′,7,12b-octahydro-1′,3′-dimethyl-spiro[2H-benzofuro[2,3-a]quinolizine-2,4′(1′H)-pyrimidin]-2′(3′H)-one hydrochloride. Non-specific binding was estimated in the presence of 10 μM WB-4101 (2-(2,6-Dimethoxyphenoxyethyl)aminomethyl-1,4-benzodioxane hydrochloride). Receptor proteins were filtered and washed, the filters were then counted to determine [^3H]MK-912 specifically bound. […] Compounds of the invention were tested in this biochemical assay and percent inhibition of specific binding was determined. Biochemical assay results are presented as the percent inhibition of specific binding in Table B1.

Assay [2] addresses T2, human recombinant adrenergic α2B receptor (Homo sapiens, UniProt P18089).
T2 construct: expressed in transfected cells; host or cells: CHO-K1
T2 sequence (P18089 1-450): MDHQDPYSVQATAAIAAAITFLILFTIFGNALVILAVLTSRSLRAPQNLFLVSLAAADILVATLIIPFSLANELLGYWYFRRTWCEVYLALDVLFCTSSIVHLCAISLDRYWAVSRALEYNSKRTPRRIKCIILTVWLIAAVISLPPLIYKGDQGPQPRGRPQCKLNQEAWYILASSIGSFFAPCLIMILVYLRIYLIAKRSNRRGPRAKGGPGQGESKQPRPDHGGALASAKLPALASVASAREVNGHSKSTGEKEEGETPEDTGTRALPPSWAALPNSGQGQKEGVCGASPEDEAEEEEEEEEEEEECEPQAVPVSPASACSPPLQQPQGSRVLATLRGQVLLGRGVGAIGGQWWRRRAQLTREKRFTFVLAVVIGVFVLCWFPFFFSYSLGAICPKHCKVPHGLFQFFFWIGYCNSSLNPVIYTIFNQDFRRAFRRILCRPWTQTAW
Description: Radioligand binding, adrenergic α2B ([3H]Rauwolscine). As to conditions: for Percentage inhibition of ligand binding, Adrenergic α2B (0.03 μM): repeat datapoints each shown; for inhibition at 0.03 µM: read-out: Percentage inhibition of ligand binding, Adrenergic α2B (0.03 μM), compound at 0.03 μM, repeat datapoints each shown. As to the method: To evaluate in radioligand binding assays the activity of compounds of the invention, human recombinant adrenergic α2B receptor expressed in Chinese hamster ovary (CHO) K1 cells (Uhlen, S. et al, Eur. J. Pharmacol. 343(1):93, 1998) in a modified Tris-HCl buffer (50 mM Tris-HCl, pH 7.4, 12.5 mM MgCl2, 1 mM EDTA, 0.2% BSA) was used. Compounds of the invention were incubated with 2.5 nM [3H]Rauwolscine for 60 min at 25° C. Non-specific binding was estimated in the presence of 10 μM Prazosin. Receptor proteins were filtered and washed, the filters were then counted to determine [3H]Rauwolscine specifically bound. […] Compounds of the invention were tested in this biochemical assay and percent inhibition of specific binding was determined. Biochemical assay results are presented as the percent inhibition of specific binding in Table B1.

The target of assay [3] is T3, rat adrenergic α1B receptor (Rattus norvegicus, UniProt P15823).
T3 construct: rat adrenergic α1B receptor obtained from Wistar Rat liver; from tissue; host or cells: Wistar rat liver
T3 sequence (P15823 1-515): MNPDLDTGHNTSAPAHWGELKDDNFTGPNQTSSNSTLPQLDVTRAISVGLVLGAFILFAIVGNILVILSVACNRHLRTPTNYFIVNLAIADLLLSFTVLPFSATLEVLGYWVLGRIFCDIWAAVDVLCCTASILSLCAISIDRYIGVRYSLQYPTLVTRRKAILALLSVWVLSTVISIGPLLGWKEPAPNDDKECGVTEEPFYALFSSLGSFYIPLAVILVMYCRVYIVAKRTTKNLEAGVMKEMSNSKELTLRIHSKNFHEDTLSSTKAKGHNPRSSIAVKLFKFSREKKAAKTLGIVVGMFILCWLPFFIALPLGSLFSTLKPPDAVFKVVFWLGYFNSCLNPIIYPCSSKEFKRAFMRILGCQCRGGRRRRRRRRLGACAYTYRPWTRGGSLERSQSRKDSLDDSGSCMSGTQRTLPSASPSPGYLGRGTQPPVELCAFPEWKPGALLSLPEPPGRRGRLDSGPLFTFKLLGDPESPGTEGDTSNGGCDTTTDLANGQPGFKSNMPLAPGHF
The experiment in a line: Radioligand binding, adrenergic α1B ([3H]Prazosin). Set-up: species or system Wistar Rat. The following applies: for Percentage inhibition of ligand binding, Adrenergic α1B (0.1 μM): compound at 0.1 μM, repeat datapoints each shown. As to the method: To evaluate in radioligand binding assays the activity of compounds of the invention, rat adrenergic α1B receptor obtained from Wistar Rat liver (Garcia-S'ainz, J. et al, Biochem. Biophys. Res. Commun. 186:760, 1992; Michel, A. et al, Br. J. Pharmacol. 98:883, 1989) in a modified Tris-HCl buffer (50 mM Tris-HCl buffer, pH 7.4, 0.5 mM EDTA) was used. Compounds of the invention were incubated with 0.25 nM [^3H]Prazosin for 60 min at 25° C. Non-specific binding was estimated in the presence of 10 μM phentolamine. Receptor proteins were filtered and washed, the filters were then counted to determine [^3H]Prazosin specifically bound. […] Compounds of the invention were tested in this biochemical assay and percent inhibition of specific binding was determined. Biochemical assay results are presented as the percent inhibition of specific binding in Table B1.

Setting [4] is: [3H]MK-912, repeat datapoints each shown.
[5] abbreviates: 0.1 μM compound, [3H]MK-912, 0.1 µM.
[6] abbreviates: compound at 0.1 μM, [3H]MK-912, 0.1 µM.

With “2-(4-fluoro-phenyl)-1-(9-methyl-1,2,3,4,5,10c-hexahydro-3a,6-diaza-cyclopenta[c]fluoren-6-yl)-propan-2-ol [II-121b]”, the Ki in assay [1] ([3H]MK-912, Sf9, repeat assays each datapoint shown) amounted to 9.18 nM; in assay [2] (CHO-K1, repeat assays each datapoint shown), 0.22 nM. Moreover, the “Percentage inhibition of ligand binding, Adrenergic α2A (0.03 μM)” value in assay [1] (compound at 0.03 μM, [3H]MK-912, repeat datapoints each shown) turned out to be 54%. The “Percentage inhibition of ligand binding, Adrenergic α2A (0.1 μM)” value in assay [1] (compound at 0.1 μM, [3H]MK-912, repeat datapoints each shown, 0.1 µM) was 80% and 85%. For the same compound, in assay [2] (compound at 0.03 μM, 0.03 µM), the “Percentage inhibition of ligand binding, Adrenergic α2B (0.03 μM)” value is 100% and 103%.
In the case of `Cc1ccc2c(c1)c1c(n2CC(N=[N+]=[N-])c2ccncc2)CCN(C)C1` (racemic) [V-1a, 5-(2-azido-2-(pyridin-4-yl)ethyl)-2,3,4,5-tetrahydro-2,8-dimethyl-1H-pyrido[4,3-b]indole], in assay [1] (setting [4]), the inhibition at 0.1 µM is 36%. The inhibition at 0.03 µM in assay [2] is 88%.
On to `Cc1ccc2c(c1)c1c(n2CC(OC(=O)C(N)C(C)C)c2ccncc2)CCN(C)C1` (single isomer, unassigned) [25a], for which, in assay [3] (0.1 µM), the “Percentage inhibition of ligand binding, Adrenergic α1B (0.1 μM)” value is 4%. Besides, the “Percentage inhibition of ligand binding, Adrenergic α2B (0.03 μM)” value in assay [2] (compound at 0.03 μM, 0.03 µM) worked out at 54%.
The matching figures for `Cc1ccc2c(c1)c1c(n2CC(OC(=O)C(N)C(C)C)c2ccncc2)CCN(C)C1` (single isomer, unassigned) [25b]: 12% and 75%.
Consider `Cc1ccc2c(c1)c1c(n2C(C)C(O)c2ccncc2)CCN(C)C1` (single isomer, unassigned) [127a], for which the “Percentage inhibition of ligand binding, Adrenergic α2B” value in assay [2] (0.03 μM compound) is given as 43%; in assay [2] (0.1 μM compound), 74%.
`Cc1ccc2c(c1)c1c(n2CC(OC(=O)C(C)(C)C)c2ccncc2)CCN(C)C1` (single isomer, unassigned) [130a]: the “Percentage inhibition of ligand binding, Adrenergic α1B” value in assay [3] (0.03 μM compound, 0.03 µM) was 32%; in assay [3] (0.1 μM compound, 0.1 µM) it was 66% and 68%. Also, the “Percentage inhibition of ligand binding, Adrenergic α2B” value is 100% and 104% in assay [2] (0.03 μM compound, 0.03 µM); 107% in assay [2] (0.1 μM compound).
`Cc1cnc2c(c1)c1c(n2CC(O)c2ccc(F)cc2)CCN(C)C1` (single isomer, unassigned) [136b]: the “Percentage inhibition of ligand binding, Adrenergic α2A” value in assay [1] (setting [5]) amounted to 21%. The “Percentage inhibition of ligand binding, Adrenergic α2B” value in assay [2] (0.03 μM compound, 0.03 µM) came out at 69%.
In the same order, the values of `Cc1cnc2c(c1)c1c(n2CC(C)(O)c2ccc(C)nc2)CCN2CCCC12` (single isomer, unassigned) [148d] are −11% and 11%.
For the compound `C/C(=C\n1c2c(c3cc(C)ccc31)C1CCCCN1CC2)c1ccc(F)cc1` (single isomer, unassigned) [199a], the “Percentage inhibition of ligand binding, Adrenergic α2A” value in assay [1] (setting [5]) came to 96%. For the same compound, the “Percentage inhibition of ligand binding, Adrenergic α2B” value in assay [2] (0.03 μM compound, 0.03 µM) is on record as 94%.
`C/C(=C\n1c2c(c3cc(C)ccc31)C1CCCCN1CC2)c1ccc(F)cc1` (single isomer, unassigned) [199b]: the “Percentage inhibition of ligand binding, Adrenergic α2A” value in assay [1] (setting [5]) worked out at 61%. For the same compound, in assay [2] (0.03 μM compound, 0.03 µM), the “Percentage inhibition of ligand binding, Adrenergic α2B” value turned out to be 27%.
In the case of `Cc1ccc2c(c1)c1c(n2CC(N)c2ccncc2)CCN2CCCC12` (single isomer, unassigned) [II-4a, 2-(9-methyl-1,2,3,4,5,10c-hexahydro-3a,6-diaza-cyclopenta[c]fluoren-6-yl)-1-pyridin-4-yl-ethylamine], in assay [2] (compound at 0.03 μM, 0.03 µM), the “Percentage inhibition of ligand binding, Adrenergic α2B” value is 79%.
Still for that read-out and setting: as for `Cc1ccc2c(c1)c1c(n2CC(N)c2ccncc2)CCN2CCCC12` (single isomer, unassigned) [II-4b, 2-(9-methyl-1,2,3,4,5,10c-hexahydro-3a,6-diaza-cyclopenta[c]fluoren-6-yl)-1-pyridin-4-yl-ethylamine], the figure is 100%.
On to `OCCN1CCc2c(c3cc(Cl)ccc3n2CC(O)c2cccnc2)C1` (single isomer, unassigned) [II-94a], for which the “Percentage inhibition of ligand binding, Adrenergic α2A” value in assay [1] (setting [6]) was determined as 0%. Also, the “Percentage inhibition of ligand binding, Adrenergic α2B” value in assay [2] (compound at 0.03 μM, 0.03 µM) was found to be 8%.
For the compound `Cc1cnc2c(c1)c1c(n2CC(O)c2ccc(C)nc2)CCN(C)C1` (single isomer, unassigned) [II-100a], the “Percentage inhibition of ligand binding, Adrenergic α2A” value in assay [1] (setting [6]) is reported as 7%. Besides, in assay [2] (compound at 0.03 μM, 0.03 µM), the “Percentage inhibition of ligand binding, Adrenergic α2B” value was 12%.
Regarding `Cc1cnc2c(c1)c1c(n2CCc2ccc(C)nc2)CCN2CCCCC12` (single isomer, unassigned) [IV-8a], the “Percentage inhibition of ligand binding, Adrenergic α2B (0.03 μM)” value in assay [2] (compound at 0.03 μM, 0.03 µM) was determined as 4%.
As to `Cc1ccc2c(c1)c1c(n2C(C)C(O)c2ccncc2)CCN(C)C1` (stereo not drawn) [II-98b], the “Percentage inhibition of ligand binding, Adrenergic α2B” value in assay [2] (compound at 0.03 μM) came out at 5%.
Turning to `CN1CCc2c(c3cc(Cl)ccc3n2CC(O)c2ccncc2)C1` (stereo not drawn) [compound 4], in assay [2], the inhibition at 0.03 µM is 106%.
The same measure, in the same setting: next, `Cc1ccc2c(c1)c1c(n2CC(O)c2ccncc2)CN(C)CC1` (stereo not drawn) [compound 8]: 61%.
For `Cc1ccc2c(c1)c1c(n2CC(O)c2ccncc2)C(C)N2CCC1C2` (stereo not drawn) [compound 38], the inhibition at 0.1 µM in assay [1] (setting [4]) was -1%. Also, the inhibition at 0.03 µM in assay [2] worked out at 56%.
In the same order, the values of `CN1CCc2c(n(CC(O)c3ccncc3)c3ccc(Cl)cc23)C1` (stereo not drawn) [compound 41] are 24% and 45%.
